Source: the supplement of paper PMC11368000

Tests used:
Settings in all cases: exposure time: 90 min
1516 [1] = donor line of iPSC-derived cardiomyocytes; experiment: POD (EC10) for decrease in total cell number (cytotoxicity) vs vehicle; higher = less potent (higher point of departure)
Protocol: (§1)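 Human iPSC-derived cardiomyocytes from 16 donors were exposed for 90 min at 37 °C to each PFAS at 0.1, 1, 10 and 100 µM in 0.5% DMSO, 384-well plates. Kinetic Ca2+ flux (FLIPR) and Hoechst nuclei counts were normalised to vehicle wells and fitted with a hierarchical Bayesian Hill model to give donor-specific PODs: EC05 for beat-rate increase or decrease and for decay-to-rise ratio increase (QT proxy), EC95 for peak-frequency loss (asystole), EC10 for total cell number loss. 0.03 µM is the lower bound.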

1392 [2] = donor line of iPSC-derived cardiomyocytes; experiment: as above
Protocol: as §1

20084 [3] = donor line of iPSC-derived cardiomyocytes; experiment: as above
Protocol: as §1

30145 [4] = donor line of iPSC-derived cardiomyocytes; experiment: as above
Protocol: as §1

1531 = donor line of iPSC-derived cardiomyocytes; experiment: POD (EC05) for decrease in beat frequency (negative chronotrope) vs vehicle; higher = less potent (higher point of departure)
Protocol: as §1

1518 = donor line of iPSC-derived cardiomyocytes; experiment: as above
Protocol: as §1

1309 = donor line of iPSC-derived cardiomyocytes; experiment: as above
Protocol: as §1

1083 = donor line of iPSC-derived cardiomyocytes; experiment: as above
Protocol: as §1

1516 [5] = experiment: as above
Protocol: as §1

1118 = donor line of iPSC-derived cardiomyocytes; experiment: as above
Protocol: as §1

1535 = donor line of iPSC-derived cardiomyocytes; experiment: as above
Protocol: as §1

1392 [6] = experiment: as above
Protocol: as §1

20084 [7] = experiment: as above
Protocol: as §1

1368 = donor line of iPSC-derived cardiomyocytes; experiment: as above
Protocol: as §1

1434 = donor line of iPSC-derived cardiomyocytes; experiment: as above
Protocol: as §1

30145 [8] = experiment: as above
Protocol: as §1

11235 = donor line of iPSC-derived cardiomyocytes; experiment: as above
Protocol: as §1

1565 = donor line of iPSC-derived cardiomyocytes; experiment: as above
Protocol: as §1

30171 = donor line of iPSC-derived cardiomyocytes; experiment: as above
Protocol: as §1

20032 = donor line of iPSC-derived cardiomyocytes; experiment: as above
Protocol: as §1

| SMILES | POD vs vehicle 1516 [1] | POD vs vehicle 1392 [2] | POD vs vehicle 20084 [3] | POD vs vehicle 30145 [4] | POD vs vehicle 1531 | POD vs vehicle 1518 | POD vs vehicle 1309 | POD vs vehicle 1083 | POD vs vehicle 1516 [5] | POD vs vehicle 1118 | POD vs vehicle 1535 | POD vs vehicle 1392 [6] | POD vs vehicle 20084 [7] | POD vs vehicle 1368 | POD vs vehicle 1434 | POD vs vehicle 30145 [8] | POD vs vehicle 11235 | POD vs vehicle 1565 | POD vs vehicle 30171 | POD vs vehicle 20032 |
| --- | --- | --- | --- | --- | --- | --- | --- | --- | --- | --- | --- | --- | --- | --- | --- | --- | --- | --- | --- | --- |
| O=S(=O)(O)CCC(F)(F)C(F)(F)C(F)(F)C(F)(F)C(F)(F)C(F)(F)C(F)(F)C(F)(F)F [8:2 Fluorotelomer sulfonic acid] | > 100 µM | > 100 µM | > 100 µM | > 100 µM | 1.06 µM | 65.7 µM | 33.9 µM | > 100 µM | 6.6 µM | > 100 µM | 60.9 µM | > 100 µM | 0.768 µM | > 100 µM | 12.8 µM | 15.3 µM | 0.121 µM | 9.96 µM | 6.39 µM | 34.5 µM |
| O=C(O)C(F)(F)C(F)(F)C(F)(F)C(F)(F)C(F)(F)C(F)(F)C(F)(F)F [Perfluorooctanoic_acid] | > 100 µM | > 100 µM | > 100 µM | > 100 µM | 49 µM | 92.7 µM | 11.1 µM | > 100 µM | 9 µM | 7.02 µM | 41.8 µM | > 100 µM | > 100 µM | > 100 µM | 26.1 µM | > 100 µM | 5.14 µM | > 100 µM | 7.04 µM | 51.5 µM |
| O=C(O)C(F)(F)C(F)(F)OC(F)(F)F [Perfluoro-3-methoxypropanoic_acid] | > 100 µM | > 100 µM | > 100 µM | > 100 µM | > 100 µM | > 100 µM | > 100 µM | > 100 µM | > 100 µM | > 100 µM | > 100 µM | > 100 µM | > 100 µM | > 100 µM | > 100 µM | > 100 µM | > 100 µM | > 100 µM | > 100 µM | > 100 µM |
| NC(=O)C(F)(F)C(F)(F)C(F)(F)C(F)(F)C(N)=O [Octafluoroadipamide] | > 100 µM | > 100 µM | > 100 µM | > 100 µM | > 100 µM | > 100 µM | > 100 µM | > 100 µM | > 100 µM | > 100 µM | > 100 µM | > 100 µM | > 100 µM | > 100 µM | > 100 µM | > 100 µM | > 100 µM | > 100 µM | > 100 µM | > 100 µM |
| OCCC(F)(F)C(F)(F)C(F)(F)C(F)(F)C(F)(F)C(F)(F)C(F)(F)C(F)(F)F [8:2 Fluorotelomer alcohol] | > 100 µM | > 100 µM | > 100 µM | > 100 µM | > 100 µM | > 100 µM | > 100 µM | > 100 µM | > 100 µM | > 100 µM | > 100 µM | > 100 µM | > 100 µM | > 100 µM | > 100 µM | > 100 µM | > 100 µM | > 100 µM | > 100 µM | > 100 µM |
| O=C(CC(=O)C(F)(F)C(F)(F)F)C(F)(F)F [3H,3H-Perfluoro-2,4-hexanedione] | 74.4 µM | 93.5 µM | > 100 µM | > 100 µM | > 100 µM | > 100 µM | > 100 µM | > 100 µM | 45.3 µM | 24.6 µM | > 100 µM | > 100 µM | > 100 µM | > 100 µM | 22.6 µM | > 100 µM | 24.9 µM | > 100 µM | 23.5 µM | > 100 µM |
| O=C(O)CCC(F)(F)C(F)(F)C(F)(F)C(F)(F)C(F)(F)C(F)(F)C(F)(F)F [3-Perfluoroheptylpropanoic_acid] | > 100 µM | > 100 µM | > 100 µM | > 100 µM | 80.7 µM | > 100 µM | > 100 µM | > 100 µM | 56.9 µM | 13.8 µM | > 100 µM | > 100 µM | > 100 µM | > 100 µM | 21 µM | > 100 µM | 20.2 µM | > 100 µM | 24.9 µM | > 100 µM |
| NC(O)(C(F)(F)F)C(F)(F)F [2-Aminohexafluoropropan-2-ol] | > 100 µM | > 100 µM | > 100 µM | > 100 µM | > 100 µM | > 100 µM | > 100 µM | > 100 µM | 22.6 µM | 16.9 µM | 83.8 µM | > 100 µM | > 100 µM | > 100 µM | 85.7 µM | > 100 µM | 7.51 µM | > 100 µM | 36.5 µM | 80.9 µM |
| NC(=O)C(F)(F)C(F)(F)C(F)(F)C(F)(F)C(F)(F)C(F)(F)C(F)(F)F [Perfluorooctanamide] | > 100 µM | > 100 µM | > 100 µM | > 100 µM | > 100 µM | > 100 µM | > 100 µM | > 100 µM | > 100 µM | > 100 µM | > 100 µM | > 100 µM | > 100 µM | > 100 µM | > 100 µM | > 100 µM | > 100 µM | > 100 µM | > 100 µM | > 100 µM |
| O=S(=O)(O)CCC(F)(F)C(F)(F)C(F)(F)C(F)(F)F [4:2 Fluorotelomer sulfonic acid] | > 100 µM | > 100 µM | > 100 µM | > 100 µM | > 100 µM | > 100 µM | > 100 µM | > 100 µM | > 100 µM | > 100 µM | > 100 µM | > 100 µM | > 100 µM | > 100 µM | > 100 µM | > 100 µM | > 100 µM | > 100 µM | > 100 µM | > 100 µM |
| NC(=O)C(F)(F)C(F)(F)C(F)(F)C(F)(F)F [Nonafluoropentanamide] | > 100 µM | > 100 µM | > 100 µM | > 100 µM | > 100 µM | > 100 µM | > 100 µM | > 100 µM | > 100 µM | 17.3 µM | > 100 µM | > 100 µM | > 100 µM | > 100 µM | > 100 µM | > 100 µM | > 100 µM | > 100 µM | > 100 µM | > 100 µM |
| O=C(O)CCC(F)(F)C(F)(F)C(F)(F)C(F)(F)C(F)(F)F [2H,2H,3H,3H-Perfluorooctanoic_acid] | > 100 µM | > 100 µM | > 100 µM | > 100 µM | 24.9 µM | > 100 µM | 37.7 µM | 39.6 µM | 21.1 µM | 20 µM | 75.1 µM | 20.4 µM | 20 µM | > 100 µM | 23.8 µM | 22.2 µM | 16.9 µM | > 100 µM | 21.8 µM | 29.8 µM |
| CC(O)C(F)(F)C(F)(F)F (stereo not given) [1-Pentafluoroethylethanol] | > 100 µM | > 100 µM | > 100 µM | > 100 µM | > 100 µM | > 100 µM | > 100 µM | > 100 µM | > 100 µM | > 100 µM | > 100 µM | > 100 µM | > 100 µM | > 100 µM | > 100 µM | > 100 µM | > 100 µM | > 100 µM | > 100 µM | > 100 µM |
| O=S(=O)(O)C(F)(F)C(F)(F)C(F)(F)C(F)(F)F [Perfluorobutanesulfonic_acid] | > 100 µM | > 100 µM | > 100 µM | > 100 µM | > 100 µM | > 100 µM | > 100 µM | > 100 µM | 29.7 µM | > 100 µM | > 100 µM | > 100 µM | > 100 µM | > 100 µM | > 100 µM | > 100 µM | 41.4 µM | > 100 µM | 73.6 µM | > 100 µM |
| O=C(O)C(F)(F)C(F)(F)C(F)(F)C(F)(F)C(F)(F)C(F)(F)C(F)(F)C(F)(F)C(F)(F)F [Perfluorodecanoic_acid] | > 100 µM | > 100 µM | > 100 µM | > 100 µM | 64.4 µM | > 100 µM | 56.2 µM | 18.3 µM | 14.9 µM | 2.31 µM | 66.5 µM | 27.5 µM | 77.6 µM | > 100 µM | 12.4 µM | > 100 µM | 15.5 µM | > 100 µM | 7.83 µM | > 100 µM |
| O=S(=O)([O-])C(F)(F)C(F)(F)C(F)(F)C(F)(F)F.[K+] [Potassium_perfluorobutanesulfonate] | > 100 µM | > 100 µM | > 100 µM | > 100 µM | > 100 µM | > 100 µM | > 100 µM | > 100 µM | > 100 µM | 33.8 µM | > 100 µM | > 100 µM | > 100 µM | > 100 µM | > 100 µM | > 100 µM | 67.8 µM | > 100 µM | > 100 µM | > 100 µM |
| NS(=O)(=O)C(F)(F)C(F)(F)C(F)(F)C(F)(F)C(F)(F)C(F)(F)F [Perfluorohexanesulfonamide] | 61.1 µM | > 100 µM | > 100 µM | > 100 µM | 6.44 µM | 32.8 µM | 14.7 µM | 25.7 µM | 14.3 µM | 1.33 µM | 12.6 µM | 91.8 µM | 54.4 µM | > 100 µM | 9.37 µM | 34.9 µM | 0.693 µM | 92 µM | 7.7 µM | 13.4 µM |
| O=C(O)C(F)(F)C(F)(F)C(F)(F)F [Perfluorobutanoic_acid] | > 100 µM | > 100 µM | > 100 µM | > 100 µM | > 100 µM | > 100 µM | > 100 µM | > 100 µM | > 100 µM | > 100 µM | > 100 µM | > 100 µM | > 100 µM | > 100 µM | > 100 µM | > 100 µM | > 100 µM | > 100 µM | > 100 µM | > 100 µM |
| O=C(O)C(F)(F)C(F)(F)C(F)F [2,2,3,3,4,4-Hexafluorobutanoic_acid] | > 100 µM | > 100 µM | > 100 µM | > 100 µM | > 100 µM | > 100 µM | > 100 µM | > 100 µM | > 100 µM | > 100 µM | > 100 µM | > 100 µM | > 100 µM | > 100 µM | > 100 µM | > 100 µM | > 100 µM | > 100 µM | > 100 µM | > 100 µM |
